# Test results reported in patent US12629406B2, “Alterations in endothelin receptors following hemorrhage and resuscitation by centhaquin” (MIDWESTERN UNIVERSITY, priority 2018, dated 2026).
# Experiments:
# [1] = Rat hemorrhagic shock, normal saline resuscitation: blood gases, hematocrit, lactate, MAP; format: in vivo
# Experimental: Animal Studies. Male Sprague-Dawley rats (340 to 380 g) (Envigo, Indianapolis, IN) were housed for at least 4 days in a room with controlled temperature (23±1° C.), humidity (50±10%) and light (6:00 A.M. to 6:00 P.M.) before being used. Food and water were made available continuously. Animal care and use for experimental procedures were approved by the Institutional Animal Care and Use Committee of the Midwestern University. All anesthetic and surgical procedures were in compliance with the guidelines established by the Animal Care Committee.
# Determination of cardiovascular response. The animals were anesthetized with urethane dissolved in isotonic saline. Urethane was administered in a dose of 1.5 g per kg body weight via intraperitoneal injection. Urethane was selected as an anesthetic agent, because it produces long lasting (8-10 hours) anesthesia with minimal cardiovascular and respiratory system depression. It produces a level of surgical anesthesia characterized by preservation of cardiovascular reflexes (Maggi and Meli 1986). Briefly, anaesthetized rats were immobilized on a surgical board equipped with controlled heating pad. Blood PO2, Pco2 and pH, were maintained using a tracheotomy cannula connected to a rodent ventilator (Model 683, Harvard Apparatus Inc., Holliston, MA). MAP and HR were measured by cannulating the left femoral artery with pressure catheter SPR-320 (Millar Instruments), connected to the ML221 bridge amplifier (AD Instruments) through AEC-10C connector and the signals were acquired (1000 S^−1) using PowerLab 16/30 data acquisition system (Gulati et al. 2012; Pacher et al. 2008). A Perimed laser Doppler flow probe was placed in the renal medulla to measure blood perfusion and data was captured on PowerLab 16/30 data acquisition system. The left femoral vein was cannulated using PE 50 tubing (Clay Adams, Parsipanny, NJ) and secured for resuscitation.
# Determination of arterial blood gases and base deficit. Baseline arterial blood pH, PO2, Pco2, Na^+, K^+ and lactate were monitored prior to induction of shock, 30 minutes after induction of shock, and 30 and 60 minutes following vehicle or centhaquin resuscitation. Blood samples (0.15 ml) were drawn from the arterial cannula using blood gas sampling syringes (Innovative Medical Technologies, Inc. Leawood, KS) and analyzed using a pHOx Ultra analyzer (Nova Biomedical Corporation, Waltham, MA). The base deficit was calculated using the formula (Davis et al. 1998; Paladino et al. 2008): SBD=0.9287×[HCO3^−−24.4+14.83×(pH-7.4)]
# Induction of Hemorrhagic Shock. Hemorrhage was induced by withdrawing blood from the femoral artery at a rate of approximately 0.5 to 1 mL/min until a MAP of 35 mmHg was reached. This MAP was maintained for 30 minutes by further withdrawal of blood, if necessary. The hemorrhagic shock model used in the present study is a well-established rodent model of manageable pressure hemorrhage (Buehler et al. 2000; Gulati et al. 1997; Gulati and Sen 1998). The volume of blood loss was about approximately 8.0 ml in each rat and was similar in various groups, amounting to approximately 40% of the total blood. Measured hematocrit levels were similar in various groups. […]
# Experimental design. […] Additional experiments were also carried out where the amount of norepinephrine (a very commonly used vasopressor during resuscitation) required to maintain MAP at 70 mmHg in normal saline (NS) or centhaquin (0.01 mg/kg) treated rats (volume equal to blood loss) was determined. […]
# [2] = tested on: isolated, perfused rabbit heart; settings: cited from earlier work
# [3] = tested on: TNF-α; test: Plasma TNF-α in hemorrhaged rats (ELISA); format: in vivo, rat; settings: p<0.01
# Experimental: Induction of Hemorrhagic Shock. Hemorrhage was induced by withdrawing blood from the femoral artery at a rate of approximately 0.5 to 1 mL/min until a MAP of 35 mmHg was reached. This MAP was maintained for 30 min by further withdrawal of blood, if necessary. The hemorrhagic shock model used in the present study is a well-established rodent model of manageable pressure hemorrhage (Buehler et al. 2000; Gulati et al. 1997a; Gulati and Sen 1998). The volume of blood loss was about approximately 8.0 ml in each rat and was similar in various groups, amounting to approximately 40% of the total blood. Measured hematocrit levels were similar in various groups. The duration of blood withdrawal was approximately 15 minutes.
# Experimental design. […] The blood samples, for biochemical estimations, were collected at 30 minutes of resuscitation and cardiovascular parameters were monitored till 60 minutes after which the animal was sacrificed. […]
# [4] = cited from earlier work
compound,measurement,setting,value
"Cc1cccc(N2CCN(CCc3ccc4ccccc4n3)CC2)c1 [centhaquin, 2-[2-(4-(3-methyphenyl)-1-piperazinyl)]ethyl-quinoline]",effect on blood pH of hemorrhaged rats,[1]; centhaquin 0.01 and 0.10 mg/kg in normal saline,significantly prevented the reduction of pH
same,MAP post resuscitation,"[1]; centhaquin 0.01 and 0.10 mg/kg, p<0.01",significant increase
same,blood lactate levels compared to the saline group,[1]; normal saline model,decrease
same,change in hematocrit after treatment,[1]; normal saline model,no change
same,effect on hemorrhage-induced decrease in pCO2 and increase in pO2,[1]; resuscitation with centhaquin in normal saline,not affected
same,"inotropic effect, ventricular contractions",[2],positive inotropic effect
same,plasma TNF-α level compared to hypertonic saline alone,[3],further increased
same,survival compared to Lactated Ringer's,[4]; 0.015 mg/kg in the fluid resuscitation phase,significantly better survival
same,cardiac output (CO),[4]; 0.015 mg/kg,augments CO
same,systemic vascular resistance (SVR),[4]; 0.015 mg/kg,reduces systemic vascular resistance
same,volume of fluids for resuscitation,[4]; 0.015 mg/kg,requires smaller volume of fluids
